Common to all, as to assay type: functional, cell-based
The subject of one assay is MCF7. In words: Cytotoxicity against human MCF7 cells after 48 hrs by MTT assay. As to conditions: MCF7, 48 h. (Tetrazolium dyes change colour on reduction, which living cells bring about.)
The subject of another assay is A549. In words: Cytotoxicity against human A549 cells after 48 hrs by MTT assay. The conditions noted are these: A549, 48 h.
The test system of a further assay is SMMC-7721. In words: Cytotoxicity against human SMMC7721 cells after 48 hrs by MTT assay. As to conditions: SMMC-7721, 48 h.
The next assay deals with HL-60. In words: Cytotoxicity against human HL60 cells after 48 hrs by MTT assay. The conditions noted are these: HL-60, 48 h.
Another assay deals with SW480. In words: Cytotoxicity against human SW480 cells after 48 hrs by MTT assay. As to conditions: SW480, 48 h.

Among the data in ChEMBL document CHEMBL2406972, “Synthesis and antitumor activities of novel dibenzo[b,d]furan-imidazole hybrid compounds” (Eur J Med Chem, 2013) are IC50 values, retold here.

On to `COc1ccc(C(=O)C[n+]2ccn(C(c3ccccc3)c3ccc4oc5ccccc5c4c3)c2)cc1` (stereo not given), for which the IC50 in the assay on MCF7 came to 4.12 µM; in the assay with A549 it was 7.27 µM; with SMMC-7721, 5.59 µM; with HL-60, 2.09 µM; in the assay with SW480, 3.76 µM.

For `O=C(C[n+]1cn(C(c2ccccc2)c2ccc3oc4ccccc4c3c2)c2ccccc21)c1ccc(F)cc1` (stereo not given), the IC50 with MCF7 turned out to be 1.87 µM; in the assay on A549, 12.1 µM; with SMMC-7721 it was 3.57 µM; with HL-60, 2.18 µM; in the assay on SW480, 3.6 µM.

With `CC(c1ccc2oc3ccccc3c2c1)n1cc[n+](CC(=O)c2ccc3ccccc3c2)c1` (stereo not given), the IC50 with MCF7 is 3.5 µM; in the assay on A549, 8.46 µM; with SMMC-7721 it was 6.43 µM; with HL-60, 2.46 µM; in the assay on SW480 it was 3.69 µM.

Turning to `O=C(C[n+]1ccn(C(c2ccccc2)c2ccc3oc4ccccc4c3c2)c1)c1ccc(O)cc1` (stereo not given), the concentration for half-maximal inhibition (IC50) in the assay with MCF7 came out at 7.05 µM; with A549, 6.8 µM; with SMMC-7721, 6.28 µM; in the assay on HL-60, 2.61 µM; with SW480, 15.2 µM.

`CC(c1ccc2oc3ccccc3c2c1)n1c[n+](CC(=O)c2ccc(O)cc2)c2ccccc21` (stereo not given): the 50% inhibitory concentration (IC50) in the assay with MCF7 was 14.2 µM; in the assay with A549, 20.1 µM; in the assay with SMMC-7721, 24.1 µM; in the assay with HL-60 it was 2.35 µM; with SW480, 16.3 µM.

Turning to `Cc1nccn1C(c1ccccc1)c1ccc2oc3ccccc3c2c1` (stereo not given), the concentration for half-maximal inhibition (IC50) is 23.5 µM with MCF7; 18.2 µM in the assay on A549; 30.2 µM in the assay with SMMC-7721; 14.5 µM with HL-60; greater than 40 µM in the assay on SW480.

Take `COc1ccc(C(=O)C[n+]2cn(C(C)c3ccc4oc5ccccc5c4c3)c3ccccc32)cc1` (stereo not given): the half-maximal inhibitory concentration (IC50) in the assay on MCF7 stood at 3.42 µM; with A549 it was 5.95 µM; in the assay on SMMC-7721 it was 2.95 µM; with HL-60 it was 2.05 µM; in the assay with SW480, 3.18 µM.

Consider `CC(c1ccc2oc3ccccc3c2c1)n1c[n+](CC(=O)c2ccc3ccccc3c2)c2ccccc21` (stereo not given), for which the IC50 in the assay with MCF7 was determined as 3.14 µM; with A549, 3.46 µM; in the assay on SMMC-7721 it was 2.24 µM; in the assay with HL-60, 1.65 µM; with SW480 it was 2.95 µM.

`CCCC[n+]1ccn(C(c2ccccc2)c2ccc3oc4ccccc4c3c2)c1C` (stereo not given): the IC50 stood at 11.9 µM in the assay on MCF7; 21.4 µM in the assay on A549; 13.1 µM in the assay with SMMC-7721; 3.81 µM in the assay with HL-60; 28.4 µM in the assay on SW480.

As to `CC(c1ccc2oc3ccccc3c2c1)n1c[n+](C(C(=O)c2ccccc2)c2ccccc2)c2ccccc21` (stereo not given), the IC50 in the assay on MCF7 was 9.35 µM; in the assay with A549, 12.7 µM; in the assay with SMMC-7721, 5.4 µM; with HL-60, 2.79 µM; in the assay on SW480, 10.5 µM.

As to `CC(c1ccc2oc3ccccc3c2c1)n1cc[n+](CC(=O)c2ccc(O)cc2)c1` (stereo not given), the IC50 with MCF7, in the assay on A549, in the assay with SMMC-7721, with HL-60 and in the assay on SW480 was greater than 40 µM each time.

As to `CCCC[n+]1cn(C(c2ccccc2)c2ccc3oc4ccccc4c3c2)c2ccccc21` (stereo not given), the IC50 with MCF7 came out at 3.37 µM; with A549, 4.61 µM; in the assay on SMMC-7721, 2.93 µM; with HL-60, 1.12 µM; in the assay with SW480 it was 8 µM.

Take `Cc1n(C(c2ccccc2)c2ccc3oc4ccccc4c3c2)cc[n+]1CC(=O)c1ccc(O)cc1` (stereo not given): the IC50 worked out at 11.8 µM with MCF7; 26.2 µM in the assay on A549; 8.84 µM with SMMC-7721; 3.92 µM with HL-60; 14.3 µM with SW480.

In the case of `CC(c1ccc2oc3ccccc3c2c1)n1c[n+](CC(=O)c2ccccc2)c2ccccc21` (stereo not given), the half-inhibitory concentration (IC50) with MCF7 worked out at 12.5 µM; in the assay on A549, 18.1 µM; in the assay on SMMC-7721, 8.51 µM; in the assay on HL-60, 2.46 µM; with SW480, 14.6 µM.

As to `CCCC[n+]1cn(C(C)c2ccc3oc4ccccc4c3c2)c2ccccc21` (stereo not given), the IC50 was 9.41 µM with MCF7; 8.55 µM with A549; 3.78 µM in the assay on SMMC-7721; 1.67 µM in the assay with HL-60; 11.1 µM in the assay with SW480.

Consider `CCCC[n+]1ccn(C(C)c2ccc3oc4ccccc4c3c2)c1C` (stereo not given), for which the 50% inhibitory concentration (IC50) is 6.6 µM with MCF7; 13 µM in the assay with A549; 7.98 µM with SMMC-7721; 3.08 µM with HL-60; 10 µM in the assay with SW480.

Take `O=C(C[n+]1cn(C(c2ccccc2)c2ccc3oc4ccccc4c3c2)c2ccccc21)c1ccc(Br)cc1` (stereo not given): the IC50 in the assay with MCF7 came out at 2.91 µM; with A549 it was 3.8 µM; in the assay with SMMC-7721, 3.36 µM; in the assay on HL-60 it was 2.1 µM; with SW480, 3.83 µM.

For `Cc1n(C(C)c2ccc3oc4ccccc4c3c2)cc[n+]1Cc1ccc([N+](=O)[O-])cc1` (stereo not given), the IC50 was greater than 40 µM in the assay with MCF7; greater than 40 µM in the assay with A549; greater than 40 µM in the assay on SMMC-7721; 14.6 µM in the assay with HL-60; greater than 40 µM in the assay on SW480.

Consider `CCCC[n+]1ccn(C(c2ccccc2)c2ccc3oc4ccccc4c3c2)c1` (stereo not given), for which the IC50 with MCF7 is 6.03 µM; in the assay on A549, 11.4 µM; with SMMC-7721, 8.13 µM; with HL-60, 1.1 µM; with SW480 it was 13.1 µM.

For the molecule `CC(c1ccc2oc3ccccc3c2c1)n1cc[n+](CC(=O)c2ccccc2)c1` (stereo not given), the half-maximal inhibitory concentration (IC50) turned out to be 14.1 µM with MCF7; 27 µM with A549; 12.1 µM in the assay on SMMC-7721; 2.55 µM in the assay with HL-60; 14.4 µM with SW480.

In the case of `O=[N+]([O-])c1ccc(C[n+]2cn(C(c3ccccc3)c3ccc4oc5ccccc5c4c3)c3ccccc32)cc1` (stereo not given), the half-maximal inhibitory concentration (IC50) in the assay with MCF7 was determined as 9.26 µM; in the assay on A549, 21.7 µM; in the assay with SMMC-7721 it was 13.2 µM; with HL-60, 4.6 µM; with SW480, 16.7 µM.

With `CC(c1ccc2oc3ccccc3c2c1)n1cc[n+](CC(=O)c2ccc(Br)cc2)c1` (stereo not given), the IC50 was 4.08 µM in the assay with MCF7; 13.7 µM in the assay with A549; 11 µM with SMMC-7721; 2.95 µM in the assay with HL-60; 6.85 µM with SW480.

Turning to `CC(c1ccc2oc3ccccc3c2c1)n1c[n+](CC(=O)c2ccc(Br)cc2)c2ccccc21` (stereo not given), the IC50 came to 3.08 µM in the assay on MCF7; 3.54 µM in the assay on A549; 2.62 µM in the assay on SMMC-7721; 0.66 µM in the assay on HL-60; 3.18 µM in the assay with SW480.

For `O=C(C[n+]1ccn(C(c2ccccc2)c2ccc3oc4ccccc4c3c2)c1)c1ccc(Br)cc1` (stereo not given), the concentration for half-maximal inhibition (IC50) in the assay on MCF7 worked out at 3.32 µM; in the assay with A549, 7.7 µM; in the assay with SMMC-7721 it was 10.8 µM; with HL-60, 2.13 µM; with SW480 it was 2.11 µM.

As to `Cc1n(C(c2ccccc2)c2ccc3oc4ccccc4c3c2)cc[n+]1CC(=O)c1ccc(Br)cc1` (stereo not given), the half-inhibitory concentration (IC50) with MCF7 turned out to be 3.45 µM; in the assay with A549 it was 9.46 µM; with SMMC-7721 it was 3.93 µM; in the assay on HL-60, 2.25 µM; in the assay with SW480, 1.98 µM.

For `Cc1n(C(C)c2ccc3oc4ccccc4c3c2)cc[n+]1CC(=O)c1ccc2ccccc2c1` (stereo not given), the concentration for half-maximal inhibition (IC50) in the assay with MCF7 was 1.65 µM; in the assay with A549, 3.86 µM; with SMMC-7721 it was 2.15 µM; in the assay on HL-60 it was 0.6 µM; with SW480 it was 3.09 µM.

Turning to `O=[N+]([O-])c1ccc(C[n+]2ccn(C(c3ccccc3)c3ccc4oc5ccccc5c4c3)c2)cc1` (stereo not given), the IC50 with MCF7 came out at 10.3 µM; in the assay on A549, 28.6 µM; in the assay with SMMC-7721, 15.3 µM; with HL-60, 10.8 µM; in the assay on SW480 it was 19.1 µM.

`O=C(C[n+]1ccn(C(c2ccccc2)c2ccc3oc4ccccc4c3c2)c1)c1ccccc1` (stereo not given): the half-maximal inhibitory concentration (IC50) in the assay with MCF7 worked out at 6.29 µM; in the assay on A549, 17.7 µM; with SMMC-7721, 11.4 µM; with HL-60, 2.14 µM; in the assay with SW480, 9.05 µM.

In the case of `O=C(C[n+]1cn(C(c2ccccc2)c2ccc3oc4ccccc4c3c2)c2ccccc21)c1ccc(O)cc1` (stereo not given), the IC50 came out at 9.15 µM in the assay with MCF7; 17.7 µM in the assay with A549; 10.8 µM in the assay on SMMC-7721; 2.89 µM in the assay with HL-60; 15.6 µM in the assay on SW480.

For the molecule `COc1ccc(C(=O)C[n+]2cn(C(c3ccccc3)c3ccc4oc5ccccc5c4c3)c3ccccc32)cc1` (stereo not given), the half-maximal inhibitory concentration (IC50) in the assay with MCF7 turned out to be 4.78 µM; in the assay on A549, 3.34 µM; in the assay with SMMC-7721 it was 2.1 µM; with HL-60, 0.64 µM; with SW480, 5.56 µM.

For `Cc1n(C(C)c2ccc3oc4ccccc4c3c2)cc[n+]1CC(=O)c1ccc(O)cc1` (stereo not given), the IC50 in the assay on MCF7 is 26.4 µM; in the assay on A549, 28.6 µM; with SMMC-7721, 13.3 µM; with HL-60 it was 12.2 µM; in the assay with SW480, 37.5 µM.

`Cc1n(C(c2ccccc2)c2ccc3oc4ccccc4c3c2)cc[n+]1Cc1ccc([N+](=O)[O-])cc1` (stereo not given): the IC50 with MCF7 was 15.3 µM; in the assay on A549 it was greater than 40 µM; with SMMC-7721, 18.5 µM; in the assay with HL-60 it was 8.74 µM; in the assay with SW480, 18.2 µM.

`CCCC[n+]1ccn(C(C)c2ccc3oc4ccccc4c3c2)c1` (stereo not given): the IC50 with MCF7 stood at 9.11 µM; in the assay with A549, 12.8 µM; in the assay on SMMC-7721, 14.2 µM; in the assay on HL-60, 5.63 µM; in the assay with SW480 it was 24.1 µM.

`Cc1n(C(C)c2ccc3oc4ccccc4c3c2)cc[n+]1CC(=O)c1ccccc1` (stereo not given): the IC50 was found to be 4.49 µM in the assay with MCF7; 17.9 µM in the assay with A549; 3.02 µM in the assay on SMMC-7721; 2.85 µM in the assay with HL-60; 10.1 µM in the assay with SW480.

On to `CC(c1ccc2oc3ccccc3c2c1)n1ccnc1` (stereo not given), for which the IC50 in the assay with MCF7, in the assay with A549, with SMMC-7721, with HL-60 and in the assay with SW480 was greater than 40 µM each time.

As to `Cc1n(C(c2ccccc2)c2ccc3oc4ccccc4c3c2)cc[n+]1CC(=O)c1ccc(F)cc1` (stereo not given), the IC50 in the assay on MCF7 is 3.23 µM; with A549, 4.88 µM; in the assay with SMMC-7721, 4.22 µM; in the assay on HL-60, 2.13 µM; with SW480 it was 1.89 µM.

Usually IC50 stands for the concentration needed to halve the response being measured. Higher therefore signals weaker potency.
